Data set [1] deals with T1, FLT3 (Homo sapiens, UniProt P36888).
T1 construct: purchased Reaction Biology Corporation
T1 sequence (P36888 27-993): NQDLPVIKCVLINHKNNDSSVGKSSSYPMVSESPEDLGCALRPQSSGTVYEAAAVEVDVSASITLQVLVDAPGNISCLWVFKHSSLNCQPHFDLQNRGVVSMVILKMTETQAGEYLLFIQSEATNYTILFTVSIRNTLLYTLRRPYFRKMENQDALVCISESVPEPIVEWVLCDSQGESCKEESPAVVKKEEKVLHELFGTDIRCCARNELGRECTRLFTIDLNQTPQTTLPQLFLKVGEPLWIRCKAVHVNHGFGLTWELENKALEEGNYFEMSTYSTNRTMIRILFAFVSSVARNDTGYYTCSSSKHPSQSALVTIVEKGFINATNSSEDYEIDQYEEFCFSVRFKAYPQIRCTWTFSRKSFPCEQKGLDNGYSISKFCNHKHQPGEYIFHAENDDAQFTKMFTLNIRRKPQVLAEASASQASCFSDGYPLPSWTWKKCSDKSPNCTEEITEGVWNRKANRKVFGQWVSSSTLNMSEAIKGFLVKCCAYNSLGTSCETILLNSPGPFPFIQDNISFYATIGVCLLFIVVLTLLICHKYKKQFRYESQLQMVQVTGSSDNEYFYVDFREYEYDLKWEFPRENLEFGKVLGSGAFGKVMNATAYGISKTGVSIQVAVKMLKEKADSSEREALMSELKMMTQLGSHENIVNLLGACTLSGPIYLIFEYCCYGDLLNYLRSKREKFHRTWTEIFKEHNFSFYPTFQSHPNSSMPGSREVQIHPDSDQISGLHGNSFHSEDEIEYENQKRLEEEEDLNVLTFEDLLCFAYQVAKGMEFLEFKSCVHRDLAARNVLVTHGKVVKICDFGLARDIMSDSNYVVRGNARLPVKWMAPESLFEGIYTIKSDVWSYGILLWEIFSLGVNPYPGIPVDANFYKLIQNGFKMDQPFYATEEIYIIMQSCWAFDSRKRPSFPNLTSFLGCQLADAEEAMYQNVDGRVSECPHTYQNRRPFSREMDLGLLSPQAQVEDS
The data set is described as follows: Kinase screening, HotSpot assay (Reaction Biology). It counts as biochemical. The method, then: Kinase screening was performed using a “HotSpot” assay platform method by Reaction Biology Corporation. The reaction buffer used herein contained 20 mM HEPES (pH 7.5), 10 mM MgCl2, 1 mM EGTA, 0.02% Brij35, 0.02 mg/mL BSA, 0.1 mM Na3VO4, 2 mM DTT and 1% DMSO. The required cofactors were added in accordance with the kinase reaction. Freshly made buffer and cofactors were added at a concentration of 20 μM during the selected enzyme reaction. A solution of the test compound in dimethylsulfoxide (DMSO) was added at a suitable concentration to this solution.

In data set [2] the test system is MV-4-11 cells. The data set is described as follows: MV-4-11 cell screening (viable cells by ATP luminescence). It counts as cell-based. The following applies: Homo sapiens, MV4-11, 72 hours incubation, read-out: MV-4-11 cell line (IC50). The method, then: A control compound was a 1 mM Staurosporine solution in DMSO.
25 μL of culture media containing 2,000 MV-4-11 cells were added and incubated at 37° C. in the presence of 5% CO2 for 72 hours. Then, the culture solution was mixed in an orbital shaker for 2 minutes and incubated at room temperature for 15 minutes. […] IC50 values are measured using the GraphPad Prism 4 program in accordance with the sigmoidal dose-response equation.

For data set [3], the system named is Ba/F3 parental. The data set is described as follows: Ba/F3 parental growth inhibition. It counts as cell-based. The following applies: Mus musculus, BaF3; Ba/F3 parental cells.
Data set [4] has as its system Ba/F3 FLT3-ITD. The data set is described as follows: Ba/F3 FLT3-ITD growth inhibition. It counts as cell-based. The following applies: Ba/F3 FLT3-ITD cells.
Data set [5] concerns K-562 cell line. The data set is described as follows: K-562 cell line activity. It counts as cell-based. The following applies: Homo sapiens, K562.
In data set [6] the target is T2, JAK2(V617F) (Homo sapiens, UniProt O60674, V617F).
T2 construct: purchased Reaction Biology Corporation
T2 sequence (O60674 whole entry V617F): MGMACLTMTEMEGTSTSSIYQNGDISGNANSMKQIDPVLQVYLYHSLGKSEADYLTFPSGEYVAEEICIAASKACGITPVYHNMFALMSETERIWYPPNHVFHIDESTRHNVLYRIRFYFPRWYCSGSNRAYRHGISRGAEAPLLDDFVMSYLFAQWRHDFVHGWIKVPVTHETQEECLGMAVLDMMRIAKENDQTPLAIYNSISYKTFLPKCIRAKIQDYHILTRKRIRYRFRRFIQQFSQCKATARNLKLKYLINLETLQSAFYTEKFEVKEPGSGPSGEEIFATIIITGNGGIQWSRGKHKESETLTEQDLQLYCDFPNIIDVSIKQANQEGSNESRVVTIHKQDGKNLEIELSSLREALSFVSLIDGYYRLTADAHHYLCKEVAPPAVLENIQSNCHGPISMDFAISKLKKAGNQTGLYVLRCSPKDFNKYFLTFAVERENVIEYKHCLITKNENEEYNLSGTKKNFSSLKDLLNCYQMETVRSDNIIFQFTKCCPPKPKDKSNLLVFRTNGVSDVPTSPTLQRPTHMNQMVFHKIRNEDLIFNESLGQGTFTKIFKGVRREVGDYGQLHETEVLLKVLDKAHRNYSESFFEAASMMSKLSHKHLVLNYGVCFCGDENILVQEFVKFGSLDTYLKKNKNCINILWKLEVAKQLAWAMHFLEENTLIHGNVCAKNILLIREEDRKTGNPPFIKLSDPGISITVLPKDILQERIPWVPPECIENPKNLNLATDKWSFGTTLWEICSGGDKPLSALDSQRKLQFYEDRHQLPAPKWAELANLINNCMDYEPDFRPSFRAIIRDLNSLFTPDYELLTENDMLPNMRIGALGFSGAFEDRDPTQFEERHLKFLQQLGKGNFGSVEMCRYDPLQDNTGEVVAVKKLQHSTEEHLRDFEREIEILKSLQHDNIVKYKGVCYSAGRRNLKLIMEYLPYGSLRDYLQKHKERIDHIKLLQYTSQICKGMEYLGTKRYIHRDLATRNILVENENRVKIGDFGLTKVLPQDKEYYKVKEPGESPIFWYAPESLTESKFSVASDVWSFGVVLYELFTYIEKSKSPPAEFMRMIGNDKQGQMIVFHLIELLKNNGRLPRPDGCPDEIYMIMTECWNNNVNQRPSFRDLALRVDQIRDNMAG
Kind of data set: Kinase screening, HotSpot assay (Reaction Biology). The format is biochemical. The method, then: (§1) Kinase screening was performed using a “HotSpot” assay platform method by Reaction Biology Corporation. The reaction buffer used herein contained 20 mM HEPES (pH 7.5), 10 mM MgCl2, 1 mM EGTA, 0.02% Brij35, 0.02 mg/mL BSA, 0.1 mM Na3VO4, 2 mM DTT and 1% DMSO. The required cofactors were added in accordance with the kinase reaction. Freshly made buffer and cofactors were added at a concentration of 20 μM during the selected enzyme reaction. A solution of the test compound in dimethylsulfoxide (DMSO) was added at a suitable concentration to this solution. In order to initiate reaction, […] (specific activity […]) was added and incubated at room temperature for 2 hours. The test compound was screened at a starting concentration of 20 μM in a 10-dose IC50 mode. IC50 of Staurosporine used as a control drug was obtained at a starting concentration of 20 μM in a 10-dose IC50 mode.

Data set [7] deals with T3, SIK2 (Homo sapiens, UniProt Q9H0K1).
T3 construct: purchased Reaction Biology Corporation
The data set is described as follows: Kinase screening, HotSpot assay (Reaction Biology). The format is biochemical. The method, then: as §1

For data set [8], the target named is T4, TYRO3/SKY (Homo sapiens, UniProt Q06418).
T4 construct: purchased Reaction Biology Corporation
Kind of data set: Kinase screening, HotSpot assay (Reaction Biology). It counts as biochemical. The method, then:
as §1

Data set [9] deals with T5, LRRK2 (Homo sapiens, UniProt Q5S007).
T5 construct: purchased Reaction Biology Corporation
Kind of data set: Kinase screening, HotSpot assay (Reaction Biology). It counts as biochemical. The method, then: as §1

For data set [10], the target named is T6, ACK1 (Homo sapiens, UniProt Q07912).
T6 construct: purchased Reaction Biology Corporation
T6 sequence (Q07912 whole entry): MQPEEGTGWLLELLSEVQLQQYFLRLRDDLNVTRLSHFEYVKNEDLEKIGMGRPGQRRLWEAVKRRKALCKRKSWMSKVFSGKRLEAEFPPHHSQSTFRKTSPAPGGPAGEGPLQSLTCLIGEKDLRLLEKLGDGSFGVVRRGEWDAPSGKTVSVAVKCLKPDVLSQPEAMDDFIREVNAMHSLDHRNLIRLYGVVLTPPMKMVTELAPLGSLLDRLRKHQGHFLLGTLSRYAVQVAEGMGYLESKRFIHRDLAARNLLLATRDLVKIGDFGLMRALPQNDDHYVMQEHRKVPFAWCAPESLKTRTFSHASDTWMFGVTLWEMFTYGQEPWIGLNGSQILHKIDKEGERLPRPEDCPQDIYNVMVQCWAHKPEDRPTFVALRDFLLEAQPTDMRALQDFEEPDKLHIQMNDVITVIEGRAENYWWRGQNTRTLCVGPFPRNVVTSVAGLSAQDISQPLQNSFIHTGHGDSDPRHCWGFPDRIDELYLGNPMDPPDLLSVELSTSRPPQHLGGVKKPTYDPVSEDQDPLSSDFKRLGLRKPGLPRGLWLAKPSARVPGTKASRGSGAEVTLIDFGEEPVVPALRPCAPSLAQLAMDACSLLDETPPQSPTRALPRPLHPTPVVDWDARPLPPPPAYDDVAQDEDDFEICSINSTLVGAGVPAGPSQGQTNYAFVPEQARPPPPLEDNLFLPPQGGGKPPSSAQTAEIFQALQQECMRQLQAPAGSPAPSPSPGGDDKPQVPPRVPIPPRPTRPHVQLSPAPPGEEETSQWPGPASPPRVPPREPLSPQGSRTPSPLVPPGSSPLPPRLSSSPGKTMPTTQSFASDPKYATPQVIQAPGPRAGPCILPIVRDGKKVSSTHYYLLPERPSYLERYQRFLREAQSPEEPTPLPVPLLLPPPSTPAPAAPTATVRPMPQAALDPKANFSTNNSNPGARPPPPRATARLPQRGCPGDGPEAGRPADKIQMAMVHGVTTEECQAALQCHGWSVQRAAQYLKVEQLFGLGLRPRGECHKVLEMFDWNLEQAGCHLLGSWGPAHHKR
Kind of data set: Kinase screening, HotSpot assay (Reaction Biology). It counts as biochemical. The method, then: as §1

Data set [11] deals with T7, ARK5/NUAK1 (Homo sapiens, UniProt O60285).
T7 construct: purchased Reaction Biology Corporation
T7 sequence (O60285 1-661): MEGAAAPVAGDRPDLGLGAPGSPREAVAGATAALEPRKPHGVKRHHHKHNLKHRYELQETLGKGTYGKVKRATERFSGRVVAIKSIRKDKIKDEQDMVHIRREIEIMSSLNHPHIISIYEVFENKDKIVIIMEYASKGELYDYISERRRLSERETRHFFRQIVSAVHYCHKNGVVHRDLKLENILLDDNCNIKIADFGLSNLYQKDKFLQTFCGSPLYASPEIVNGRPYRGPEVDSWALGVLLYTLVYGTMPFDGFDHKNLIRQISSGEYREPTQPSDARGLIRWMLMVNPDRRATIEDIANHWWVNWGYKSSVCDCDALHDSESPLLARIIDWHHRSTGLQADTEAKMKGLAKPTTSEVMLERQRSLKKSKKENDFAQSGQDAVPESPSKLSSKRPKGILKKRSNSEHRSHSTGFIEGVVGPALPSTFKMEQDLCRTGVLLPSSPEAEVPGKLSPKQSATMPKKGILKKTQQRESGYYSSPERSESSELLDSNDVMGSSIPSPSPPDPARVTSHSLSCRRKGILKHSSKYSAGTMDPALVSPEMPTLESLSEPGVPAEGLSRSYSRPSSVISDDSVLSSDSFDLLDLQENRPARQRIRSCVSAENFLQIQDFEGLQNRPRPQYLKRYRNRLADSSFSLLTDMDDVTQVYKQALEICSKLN
The data set is described as follows: Kinase screening, HotSpot assay (Reaction Biology). It counts as biochemical. The method, then: as §1

Data set [12] concerns the target T8, c-MER (Homo sapiens, UniProt Q12866).
T8 construct: purchased Reaction Biology Corporation
Kind of data set: Kinase screening, HotSpot assay (Reaction Biology). The format is biochemical. The method, then: as §1

In data set [13] the target is T9, AXL (Homo sapiens, UniProt P30530).
T9 construct: purchased Reaction Biology Corporation
The data set is described as follows: Kinase screening, HotSpot assay (Reaction Biology). The format is biochemical. The method, then:
as §1

In data set [14] the target is T10, mLK1/MAP3K9 (Homo sapiens, UniProt P80192).
T10 construct: purchased Reaction Biology Corporation
Kind of data set: Kinase screening, HotSpot assay (Reaction Biology). It counts as biochemical. The method, then:
as §1

The target of data set [15] is T11, RET (Homo sapiens, UniProt P07949).
T11 construct: purchased Reaction Biology Corporation
T11 sequence (P07949 29-1114): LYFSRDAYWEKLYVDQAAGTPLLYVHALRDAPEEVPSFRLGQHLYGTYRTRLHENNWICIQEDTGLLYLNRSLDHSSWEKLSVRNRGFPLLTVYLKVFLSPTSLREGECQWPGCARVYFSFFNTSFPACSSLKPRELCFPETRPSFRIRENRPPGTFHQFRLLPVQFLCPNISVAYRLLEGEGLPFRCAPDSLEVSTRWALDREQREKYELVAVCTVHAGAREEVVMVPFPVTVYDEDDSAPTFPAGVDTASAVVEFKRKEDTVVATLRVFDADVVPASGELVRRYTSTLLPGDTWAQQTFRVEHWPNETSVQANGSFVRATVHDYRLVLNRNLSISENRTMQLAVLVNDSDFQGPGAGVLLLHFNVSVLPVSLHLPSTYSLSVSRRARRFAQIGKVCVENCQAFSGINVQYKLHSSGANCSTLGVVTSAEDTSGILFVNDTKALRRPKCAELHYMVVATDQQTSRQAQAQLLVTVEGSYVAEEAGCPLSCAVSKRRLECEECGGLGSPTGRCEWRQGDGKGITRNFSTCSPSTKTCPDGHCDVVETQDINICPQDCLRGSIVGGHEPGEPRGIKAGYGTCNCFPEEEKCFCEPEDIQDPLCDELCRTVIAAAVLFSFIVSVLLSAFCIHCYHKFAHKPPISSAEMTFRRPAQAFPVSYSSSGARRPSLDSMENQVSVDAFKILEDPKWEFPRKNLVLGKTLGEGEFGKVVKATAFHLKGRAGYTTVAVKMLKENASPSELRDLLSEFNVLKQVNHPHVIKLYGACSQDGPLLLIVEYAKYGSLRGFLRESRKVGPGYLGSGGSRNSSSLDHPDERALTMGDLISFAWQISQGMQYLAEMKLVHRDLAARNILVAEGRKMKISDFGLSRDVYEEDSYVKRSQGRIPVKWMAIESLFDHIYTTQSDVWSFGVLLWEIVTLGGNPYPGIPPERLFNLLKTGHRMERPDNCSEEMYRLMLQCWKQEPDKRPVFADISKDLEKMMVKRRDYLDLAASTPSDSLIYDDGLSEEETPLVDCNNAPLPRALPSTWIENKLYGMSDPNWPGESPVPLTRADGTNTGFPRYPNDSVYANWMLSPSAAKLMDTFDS
The data set is described as follows: Kinase screening, HotSpot assay (Reaction Biology). The format is biochemical. The method, then: as §1

The target in data set [16] is T12, JAK3 (Homo sapiens, UniProt P52333).
T12 construct: purchased Reaction Biology Corporation
The data set is described as follows: Kinase screening, HotSpot assay (Reaction Biology). The format is biochemical. The method, then:
as §1

For data set [17], the target named is T13, JAK1 (Homo sapiens, UniProt P23458).
T13 construct: purchased Reaction Biology Corporation
T13 sequence (P23458 whole entry): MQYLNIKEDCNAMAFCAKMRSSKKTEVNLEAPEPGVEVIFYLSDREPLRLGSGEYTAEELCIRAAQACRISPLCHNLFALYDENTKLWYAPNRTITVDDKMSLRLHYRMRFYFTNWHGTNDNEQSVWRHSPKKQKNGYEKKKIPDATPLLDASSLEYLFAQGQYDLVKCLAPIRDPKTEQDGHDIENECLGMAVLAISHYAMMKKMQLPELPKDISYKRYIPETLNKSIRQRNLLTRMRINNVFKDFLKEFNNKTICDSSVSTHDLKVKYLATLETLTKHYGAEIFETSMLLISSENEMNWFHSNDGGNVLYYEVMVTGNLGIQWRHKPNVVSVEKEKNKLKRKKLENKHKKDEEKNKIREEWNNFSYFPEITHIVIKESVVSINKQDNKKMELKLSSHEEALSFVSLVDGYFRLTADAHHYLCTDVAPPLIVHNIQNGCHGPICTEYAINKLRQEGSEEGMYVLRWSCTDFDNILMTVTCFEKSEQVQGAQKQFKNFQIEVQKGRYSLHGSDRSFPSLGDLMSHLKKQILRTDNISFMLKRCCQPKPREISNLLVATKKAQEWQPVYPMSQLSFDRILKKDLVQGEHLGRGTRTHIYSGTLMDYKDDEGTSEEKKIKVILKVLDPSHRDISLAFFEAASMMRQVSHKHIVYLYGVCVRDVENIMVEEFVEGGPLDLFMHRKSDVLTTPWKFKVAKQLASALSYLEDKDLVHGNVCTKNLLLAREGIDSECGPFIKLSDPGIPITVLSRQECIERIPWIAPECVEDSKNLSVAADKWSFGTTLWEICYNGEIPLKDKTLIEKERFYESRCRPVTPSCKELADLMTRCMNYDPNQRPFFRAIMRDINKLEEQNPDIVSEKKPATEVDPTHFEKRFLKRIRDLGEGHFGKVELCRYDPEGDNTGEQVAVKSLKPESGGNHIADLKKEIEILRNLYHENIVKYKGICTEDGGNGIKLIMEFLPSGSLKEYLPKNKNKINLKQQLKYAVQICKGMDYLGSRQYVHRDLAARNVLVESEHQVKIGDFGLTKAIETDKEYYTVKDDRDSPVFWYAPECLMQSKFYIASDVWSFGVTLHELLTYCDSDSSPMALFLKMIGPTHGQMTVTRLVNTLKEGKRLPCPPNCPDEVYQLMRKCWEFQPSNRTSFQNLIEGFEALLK
Kind of data set: Kinase screening, HotSpot assay (Reaction Biology). The format is biochemical. The method, then: as §1

In data set [18] the target is T14, AXL(R499C) (Homo sapiens, UniProt P30530, R499C).
T14 construct: purchased Reaction Biology Corporation
Kind of data set: Kinase screening, HotSpot assay (Reaction Biology). The format is biochemical. The method, then: as §1

Data set [19] deals with T15, PKCmu/PRKD1 (Homo sapiens, UniProt Q15139).
T15 construct: purchased Reaction Biology Corporation
The data set is described as follows: Kinase screening, HotSpot assay (Reaction Biology). It counts as biochemical. The method, then: as §1

Data set [20] concerns the target T16, JAK2 (Homo sapiens, UniProt O60674).
T16 construct: purchased Reaction Biology Corporation
The data set is described as follows: Kinase screening, HotSpot assay (Reaction Biology). It counts as biochemical. The method, then: as §1

Data set [21] addresses T7, ARK5/NUAK1. The following applies: comparative values quoted in text, source not stated; read-out: ARK5/NUAK1 IC50 of comparative compounds; cited from earlier work.
The target of data set [22] is CYP 2C19 (Homo sapiens, UniProt P33261). The data set is described as follows: CYP450 assay (luminescence). It counts as in vitro ADME. The following applies: control compound at 100 μM, read-out: inhibitory activity against human CYP 2C19. The method, then: The resulting substance was reacted with NADPH for 20 minutes at 37° C. and a detection reagent was added to terminate the reaction. After stabilization at room temperature for 20 minutes, a luminescence signal was measured.

Data set [23] has as its target CYP 3A4 (Homo sapiens, UniProt P08684). The data set is described as follows: CYP450 assay (luminescence). The following applies: compound at 10 μM, read-out: inhibitory activity against human CYP 3A4. It counts as in vitro ADME. The method, then:
(§2) Compound 5 and a positive control stock solution were diluted with water to prepare a 40 μM working solution, and a solution containing an enzyme and a substrate was prepared using water and buffer. Compound 5/control/positive control and the solution were each dispensed on a 96-well and preincubated at 37° C. for 10 minutes. The resulting substance was reacted with NADPH for 20 minutes at 37° C. and a detection reagent was added to terminate the reaction. After stabilization at room temperature for 20 minutes, a luminescence signal was measured.

Data set [24] deals with CYP 1A2 (Homo sapiens, UniProt P05177). Kind of data set: CYP450 assay (luminescence). The following applies: compound at 10 μM. It counts as in vitro ADME. The method, then: as §2

Like-named read-outs stand apart in the source and are kept apart here.

We go through seven molecules from patent US10683282B2, “Multi-substituted pyrimidine derivatives with excellent kinase inhibitory activities” (KOREA INSTITUTE OF SCIENCE AND TECHNOLOGY, priority 2018, dated 2020).

T16 sequence (O60674 whole entry): as the sequence (O60674 whole entry V617F) above, with F617V counted along it
Sequence of CYP 3A4 (P08684 whole entry): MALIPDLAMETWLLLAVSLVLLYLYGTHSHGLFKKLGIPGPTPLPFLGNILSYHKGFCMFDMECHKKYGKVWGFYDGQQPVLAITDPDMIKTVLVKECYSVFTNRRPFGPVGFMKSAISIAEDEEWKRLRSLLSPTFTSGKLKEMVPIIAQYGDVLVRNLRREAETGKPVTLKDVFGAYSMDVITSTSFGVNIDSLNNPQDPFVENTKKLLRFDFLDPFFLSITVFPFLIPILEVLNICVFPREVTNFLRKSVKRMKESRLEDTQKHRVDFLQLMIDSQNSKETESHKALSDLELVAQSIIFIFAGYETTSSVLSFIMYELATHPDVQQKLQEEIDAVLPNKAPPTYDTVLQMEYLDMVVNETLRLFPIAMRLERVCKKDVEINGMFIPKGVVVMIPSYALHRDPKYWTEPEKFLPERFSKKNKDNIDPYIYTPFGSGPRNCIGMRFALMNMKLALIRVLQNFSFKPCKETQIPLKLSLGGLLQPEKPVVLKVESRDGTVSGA

With `Cc1cnc(Nc2ccc(OCCN3CCCC3)cc2)nc1NCc1ccco1` [Compound 1, 4-(furan-2-yl)methylamino-5-methyl-2-[4-{2-(pyrrolidin-1-yl)ethoxy}phenylamino]pyrimidine], the IC50 in data set [1] stood at 10.3 nM; in [2], 65.9 nM; in data set [5] it was 5100 nM; in [6], 95.2 nM; in [7] it was 105 nM; in [8], 10700 nM. For the same molecule, the IC50 in [9] was 113 nM; in data set [10], 38.8 nM; in data set [11], 5.9 nM; in data set [12], 14300 nM; in data set [13], 443 nM; in data set [14], 148 nM. Further, the IC50 came to 488 nM in [15]; 207 nM in [16]; 50 nM in [17]; 207 nM in data set [18]; 167 nM in data set [19]; 50.1 nM in data set [20]. Besides, the results for the GI50 in data set [3] and in data set [4] were 1790 nM and 92 nM, respectively.

With `Fc1cnc(Nc2ccc(OCCN3CCCC3)cc2)nc1NCc1ccco1` [Compound 20, 4-(furan-2-yl) methylamino-5-fluoro-2-[4-{2-(pyrrolidin-1-yl)ethoxy}phenylamino]pyrimidine], the IC50 in data set [1] was determined as 22 nM; in [6], 238 nM; in data set [10], 101 nM; in data set [11], 52.3 nM; in data set [17], 177 nM; in data set [20], 99.1 nM. For the same molecule, the figures for the GI50 in data set [3] and in [4] were 6670 nM and 178 nM, respectively.

As for `FC(F)(F)c1cnc(Nc2ccc(OCCN3CCCC3)cc2)nc1NCc1ccco1` [Compound 21, 4-(furan-2-yl) methylamino-5-trifluoromethyl-2-[4-{2-(pyrrolidin-1-yl)ethoxy}phenylamino]pyrimidine], the GI50 amounted to 8060 nM in data set [3] and 558 nM in data set [4].

Regarding `Cc1nc(Nc2cnn(C3CCNCC3)c2)nc2c1N(C)C(=O)c1cc3ccccc3cc1N2C` [HTH-01-015], the IC50 in data set [21] was 100 nM.

For `CN(C)CCC=C1c2ccccc2CCc2ccccc21` [amitriptyline, reference compound], in data set [22], the inhibition at 20 min, 100 µM was 88%.

For the molecule `CC(=O)N1CCN(c2ccc(OCC3COC(Cn4ccnc4)(c4ccc(Cl)cc4Cl)O3)cc2)CC1` (stereo not shown) [ketoconazole, reference compound], the inhibition at 20 min, 10 µM in [23] came to 98.7%.

Turning to αα-naphthoflavone [reference compound], the “inhibitory activity against human CYP 1A2” value in data set [24] is 97.7.
